In US20110118224A1, “USE OF STEROID SULFATASE INHIBITORS FOR THE TREATMENT OF PRETERM LABOR” (priority 2008, published 2011):

Experiments:
[1] = Placental barrier crossing ability measurement (whole body autoradiography of 14C-labeled compound); format: in vivo, rat; settings: for Passage of the placental barrier: compound and/or its main metabolite
Protocol: The ability of a steroid sulfatase inhibitor according to the invention to cross the placental barrier can be investigated as follows. This assay was performed with a steroid sulfatase inhibitor according to the invention (Estradiol Sulfamate or E2MATE) which is used for the treatment of symptoms related to estrogen deficiency in postmenopausal or hysterectomized women.
Six female albino rats received a single intravenous bolus dose of 0.47 mg ^14C-labeled Estradiol Sulfamate per kg. Six female albino, 3 pregnant albino and 4 female pigmented rats received 1 mg ^14C-labeled Estradiol Sulfamate per kg as an intragastic dose. […] Animals were deeply frozen in a mixture of hexane and dry ice and embedded into a block of carboxymethyl cellulose, which was frozen and stored at approximately −20° C. External standards were used for semi-quantitative evaluation of radioluminograms and were prepared by spiking an erythrocyte concentrate with different concentrations of ^14C-radioactivity. Pores were drilled into a separate block of carboxymethyl cellulose, filled with external standards and frozen at approximately −20° C. Whole body sagittal sections of 50 μm thickness were taken through each animal and the external standard block using a Leica CM 3600 cryomicrotome. After freeze drying of the sections in the cryostat for a minimum time of 48 hours, they were exposed to an Imaging Plate (IP) for a period of 4 to 24 hours and the IP was scanned using the bioimaging analyzer BAS 2000. For evaluation, the external standard samples were related to a colored scale using the software AIDA (Advanced Image Data Analysis, version 3.10, Raytest, Germany), each color representing a specific radioactive concentration (MBq). The different tissues were compared semi-quantitatively to the external standards and concentration ranges were determined.

[2] = test system: time-mated female New Zealand White rabbits; experiment: Developmental toxicity in the rabbit; format: in vivo
From the text: The safety of a use of a steroid sulfatase inhibitor according to the invention, measured by no or minor effects induced on foetus development during gestation in pregnant rabbit can be investigated as follows.
The effects of a steroid sulfatase inhibitor according to the invention (Estradiol Sulfamate or E2MATE) on the embryonic and foetal development of the rabbit when administered during the period of organogenesis (Days 6 to 18 of gestation). Four groups each of between 20 to 25 time-mated female New Zealand White rabbits were dosed with 0 (Control), 5, 15 or 50 μg/kg/day from Day 6 to Day 18 of gestation. A further group of twenty females was administered with ethinylestradiol at 50 μg/kg/day and acted as a positive control. Clinical observations, bodyweight and food consumption were recorded and the progress and outcome of pregnancy was assessed on Day 28 of gestation. Foetal pathology to assess abnormalities and variations was carried out on all foetuses

[3] = test system: time-mated female Sprague-Dawley rats; experiment: Developmental toxicity in the rat; format: in vivo
From the text: The safety of a use of a steroid sulfatase inhibitor according to the invention, measured by no or minor effects induced on foetus development during gestation in pregnant rat can be investigated as follows.
The effects of a steroid sulfatase inhibitor according to the invention (Estradiol Sulfamate or E2MATE) on the embryonic and foetal development of the rat was investigated when administered during the period of organogenesis (Days 6 to 17 of gestation). Four groups each of 20 time-mated female Sprague-Dawley rats were dosed with 0 (Control), 7.5, 22 or 60 μg/kg/day of Estardiol sulfamate from Day 6 to Day 17 of gestation. A further group of twenty females was dosed with ethinylestradiol at 80 μg/kg/day and acted as a positive control.
Clinical observations, bodyweight and food consumption were recorded and the progress and outcome of pregnancy was assessed on Day 20 of gestation. Foetal pathology to assess abnormalities and variations was carried out on all foetuses.

[4] = 1 h post-dose, 1 mg/kg i.g., pregnant albino rats, semi-quantitative
[5] = dosed Day 6 to Day 18 of gestation
[6] = dosed Day 6 to Day 17 of gestation

| Structure (SMILES) | Passage of the placental barrier ([1]; pregnant albino rats) | Distribution of radiolabel in pregnant albino animals compared to female albino rats ([1]; 1 mg/kg 14C-labeled, intragastric, pregnant (18 day p.c.) albino rats) | 14C-concentrations in pregnant animals versus non-pregnant animals ([1]; 1 h post-dose, 1 mg/kg i.g.) | 14C-radiolabel concentration in foetal liver [1, 4] | 14C-radiolabel concentration in foetal membranes [1, 4] | 14C-radiolabel concentration in mammary gland [1, 4] | 14C-radiolabel concentration in placenta [1, 4] | 14C-radiolabel concentration in the foetus [1, 4] | 14C-concentrations (foetus, foetal liver, placenta, mammary gland, foetal membranes) ([1]; 7 h and 1 day post dose, 1 mg/kg i.g., pregnant albino rats) | general radiolabel concentration in pregnant animals versus non-pregnant animals ([1]; after 7 h, 1 mg/kg i.g.) | No Observed Adverse Effect Level (NOAEL) for embryofoetal development [2, 5] | No Observed Adverse Effect Level for maternal toxicity during the period of organogenesis [2, 5] | Dosage-related maternal effects at higher doses ([2]; doses above 5 μg/kg/day (15 or 50 μg/kg/day)) | Tolerance by the females compared with ethinylestradiol (positive control) ([2]; ethinylestradiol at 50 μg/kg/day) | Effects in foetuses / teratogenic action ([3]; at about 22 μg/kg/day) | No Observed Adverse Effect Level (NOAEL) for foetal development [3, 6] | No Observed Effect Level (NOEL) for female toxicity [3, 6] | Observed female toxicity at the higher doses ([3]; doses above 7.5 μg/kg/day (22 or 60 μg/kg/day)) |
| --- | --- | --- | --- | --- | --- | --- | --- | --- | --- | --- | --- | --- | --- | --- | --- | --- | --- | --- |
| CC12CCC3c4ccc(OS(N)(=O)=O)cc4CCC3C1CCC2=O (stereo not shown) [Estrone Sulfamate] | passed the placental barrier reversibly |  |  |  |  |  |  |  |  |  |  |  |  |  |  |  |  |  |
| C[C@]12CC[C@@H]3c4ccc(OS(N)(=O)=O)cc4CC[C@H]3[C@@H]1CC[C@@H]2O [Estradiol Sulfamate] | passed the placental barrier reversibly | similar | slightly higher | high range | medium | medium | high range | high range | between the higher low and the lower high range | lower | about 15 μg/kg/day | about 5 μg/kg/day | limited to lower bodyweight gain and food consumption | generally better tolerated | some minor effects in foetuses but no teratogenic action | about 22 μg/kg/day | about 7.5 μg/kg/day | limited to reduced food consumption and an associated reduction in bodyweight gain during gestation |
